Measured values from patent US7608630B2, “Marasmius androsaceus L.es Fr extract, piperidone derivative, and their use for the preparation of hypertensives” (Hainan Yangpu New Special Pharmaceutical Co., Ltd., priority 2004, dated 2009).
“And” between values parts separate entries of the source, which are not always exact repeats. Equal values may be shown once.

Key:
[1] = system: blood pressure of SHR rat; test: Reduction of blood pressure of anesthetized SHR rat; type: in vivo, spontaneously hypertensive rat (SHR); conditions: SHR rat; for Diastolic pressure / Systolic pressure: 10 mg/kg intravenous; for reduction of systolic pressure and diastolic pressure: dosage range 10-200 mg/kg, intravenous
Procedure: (§1) A spontaneously hypertensive rat (SHR) was anesthetized with 40 mg/ml pentobarbital, and fixed by its back on an experimental stand. The skin at its neck was cut open after removing hair, and thereafter the right common carotid artery was separated with its proximal end being clamped by a artery clamp and its axifugal end being ligated by a thread. A V-shape cut was made with scissors at the axifugal end, into which an arterial cannula filled with heparin physiological saline was inserted. The arterial cannula was connected with a blood pressure transducer, and then the blood pressure transducer was connected to a computer-controlled three-way physiological-pharmacological recorder. The right femoral vein of the rat was separated and intubated for the injection of a drug. When the blood pressure became stable (i.e., the blood pressure contraction curve became straight), the rat was administered by intravenous route.

[2] = system: aorta smooth muscle of rabbit; test: Effects on aorta of rabbit (contraction of isolated aorta section caused by adrenalin); set-up: species or system New Zealand rabbit
Procedure: A New Zealand rabbit was beheaded and unconscious. After thoracotomy, its thoracic aorta was quickly taken out, and quickly placed in and flushed with a pre-cooled LOCK's solution (which comprised of 1000 ml water, 9 g NaCl, 0.35 g KCl, 0.35 g MgSO4.7H2O, 0.16 g KH2PO4, and 1 g NaHCO3) to remove bloodiness. The connective tissue outside the blood vessel was carefully cut off, and an aorta section of 2-3 mm wide at an angle of 45° relative to the vessel was taken for use in the following test.
The aorta section of 2 cm long was clamped at its both ends with frog heart clips, and put in a thermostatic perfusion tank of 38° C. with the lower end being fixed at the bottom of the tank and the top end being connected by a thread to a tensile transducer of a two-way electrophysiolograph. Oxygen was bubbled to the solution in the perfusion tank, and the contraction force of the aorta section was recorded after balancing it in the solution for 80 min. During which, the LOCK's solution was changed once per 20 min. After adding 1.2×10^−6 mg/ml adrenalin to the solution, the contraction curve of the aorta section was recorded.

blood pressure of cats = test: Reduction of blood pressure of cat; type: in vivo; conditions: cats, 10 mg/kg o.s; for Diastolic pressure, Animal 1-4 individually / Systolic pressure, Animal 1-4 individually / Systolic pressure, Animal 3-4 individually: 10 mg/kg
Procedure: as §1
Five cats of 2.5-3.2 kg were administered orally and intravenously respectively according to the method in Example 8, and then their systolic pressure and diastolic pressure were determined using normal cats non-administered as a control group.

[3] = system: ileum smooth muscle of guinea pig; test: Effects on ileum smooth muscle of guinea pig (automatic rhythmic contraction of isolated ileum section)
Procedure: The section was clamped at its both ends with frog heart clips, and placed in a perfusion tank with the lower end being fixed at the bottom of the tank and the top end being connected by a thread to a tensile transducer of a two-way electrophysiolograph, so that the automatic rhythmic contraction of the ileum section was recorded. The Tai's nutrient solution in the tank was kept at a temperature of 35° C., into which pure […] was bubbled. […] The normal contraction curve of the ileum section was firstly recorded using isoprenaline as a positive control.

[4] = 10 min after administration (Table 9)
[5] = 20 min after administration (Table 9)
[6] = 30 min after administration (Table 9)
[7] = 40 min after administration (Table 9)
[8] = 50 min after administration (Table 9)
[9] = 60 min after administration (Table 9)
[10] = 90 min after administration (Table 9)
[11] = 120 min after administration (Table 9)
[12] = 150 min after administration (Table 9)
[13] = 180 min after administration (Table 9)
[14] = before administration (Table 9)

Compound: CC1(C)CNCC(C)(C)C1=O.Cl [3,3,5,5-tetramethyl-4-piperidone hydrochloride]
- Diastolic pressure ([1]; 5 min after administration): 109 ± 13 mm/Hg
- Systolic pressure ([1]; 5 min after administration): 139 ± 19 mm/Hg
- Diastolic pressure ([1]; 60 min after administration): 89 ± 12 mm/Hg
- Systolic pressure ([1]; 60 min after administration): 123 ± 11 mm/Hg
- Diastolic pressure ([1]; 120 min after administration): 80 ± 23 mm/Hg
- Systolic pressure ([1]; 120 min after administration): 129 ± 17 mm/Hg
- Diastolic pressure ([1]; 240 min after administration): 112 ± 16 mm/Hg
- Systolic pressure ([1]; 240 min after administration): 169 ± 14 mm/Hg
- Diastolic pressure ([1]; before administration): 119 ± 15 mm/Hg
- Systolic pressure ([1]; before administration): 170 ± 9.3 mm/Hg
- reduction of systolic pressure and diastolic pressure [1]: could obviously reduce the systolic pressure and diastolic pressure of SHR rat

Compound: CCN1CC(C)(C)C(=O)C(C)(C)C1 [Compound of formula Ia, 1-ethyl-3,3,5,5-tetramethyl-4-piperidone]
- Time of taking effect ([2]; concentration 1 × 10^−4 mg/ml): 3 min
- Contraction force ([2]; concentration 1 × 10^−4 mg/ml, 10 min, then adrenalin 1.2×10^−6 mg/ml, relative to original value): 0.3
- reduction of the contraction of aorta section caused by adrenalin ([2]; concentration range 5×10^−3-1×10^−4 mg/ml): could obviously reduce the contraction of aorta section caused by adrenalin
- contraction force resumed by adrenalin, fraction of the original value ([2]; sample 10 min, then adrenalin 1.2×10^−6 mg/ml, stated for the three samples together): ½-⅓

Compound: CC1(C)CNCC(C)(C)C1O [Compound of formula Ib, 3,3,5,5-tetramethyl-4-piperidanol]
- Systolic pressure ([1]; 5 min after administration): 140 ± 19 mm/Hg
- Diastolic pressure ([1]; 60 min after administration): 88 ± 10 mm/Hg
- Systolic pressure ([1]; 60 min after administration): 121 ± 15 mm/Hg
- Diastolic pressure ([1]; 120 min after administration): 89 ± 8.9 mm/Hg
- Systolic pressure ([1]; 120 min after administration): 126 ± 16 mm/Hg
- Diastolic pressure ([1]; 240 min after administration): 107 ± 9.2 mm/Hg
- Systolic pressure ([1]; 240 min after administration): 162 ± 11 mm/Hg
- Diastolic pressure ([1]; before administration): 125 ± 17 mm/Hg
- Systolic pressure ([1]; before administration): 178 ± 13 mm/Hg
- reduction of systolic pressure and diastolic pressure [1]: could obviously reduce the systolic pressure and diastolic pressure of SHR rat
- Average Diastolic pressure (blood pressure of cats; [4]): 106.75 mmHg
- Average Systolic pressure (blood pressure of cats; [4]): 141.75 mmHg
- Diastolic pressure, Animal 1-4 individually (blood pressure of cats; [4]): 119 mmHg and 105 mmHg and 100 mmHg and 103 mmHg
- Systolic pressure, Animal 1-4 individually (blood pressure of cats; [4]): 136 mmHg and 139 mmHg and 145 mmHg and 147 mmHg
- Average Diastolic pressure (blood pressure of cats; [5]): 104.25 mmHg
- Average Systolic pressure (blood pressure of cats; [5]): 140 mmHg
- Diastolic pressure, Animal 1-4 individually (blood pressure of cats; [5]): 135 mmHg and 89 mmHg (2×) and 104 mmHg
- Systolic pressure, Animal 1-4 individually (blood pressure of cats; [5]): 146 mmHg and 125 mmHg and 153 mmHg and 136 mmHg
- Average Diastolic pressure (blood pressure of cats; [6]): 104.75 mmHg
- Average Systolic pressure (blood pressure of cats; [6]): 140.5 mmHg
- Diastolic pressure, Animal 1-4 individually (blood pressure of cats; [6]): 130 mmHg and 90 mmHg (2×) and 109 mmHg
- Systolic pressure, Animal 1-4 individually (blood pressure of cats; [6]): 146 mmHg and 126 mmHg and 154 mmHg and 136 mmHg
- Average Diastolic pressure (blood pressure of cats; [7]): 102.25 mmHg
- Average Systolic pressure (blood pressure of cats; [7]): 139 mmHg
- Diastolic pressure, Animal 1-4 individually (blood pressure of cats; [7]): 126 mmHg and 91 mmHg and 102 mmHg and 90 mmHg
- Systolic pressure, Animal 1-4 individually (blood pressure of cats; [7]): 140 mmHg and 126 mmHg and 154 mmHg and 136 mmHg
- Average Diastolic pressure (blood pressure of cats; [8]): 103 mmHg
- Average Systolic pressure (blood pressure of cats; [8]): 136.5 mmHg
- Diastolic pressure, Animal 1-4 individually (blood pressure of cats; [8]): 126 mmHg and 96 mmHg and 103 mmHg and 87 mmHg
- Systolic pressure, Animal 1-4 individually (blood pressure of cats; [8]): 136 mmHg and 130 mmHg (2×) and 150 mmHg
- Average Diastolic pressure (blood pressure of cats; [9]): 109 mmHg
- Average Systolic pressure (blood pressure of cats; [9]): 138 mmHg
- Diastolic pressure, Animal 1-4 individually (blood pressure of cats; [9]): 123 mmHg and 97 mmHg and 102 mmHg and 114 mmHg
- Systolic pressure, Animal 1-4 individually (blood pressure of cats; [9]): 140 mmHg and 122 mmHg and 152 mmHg and 138 mmHg
- Average Diastolic pressure (blood pressure of cats; [10]): 109.25 mmHg
- Average Systolic pressure (blood pressure of cats; [10]): 141.75 mmHg
- Diastolic pressure, Animal 1-4 individually (blood pressure of cats; [10]): 125 mmHg and 95 mmHg and 110 mmHg and 107 mmHg
- Systolic pressure, Animal 1-4 individually (blood pressure of cats; [10]): 135 mmHg and 130 mmHg and 156 mmHg and 146 mmHg
- Average Diastolic pressure (blood pressure of cats; [11]): 116.75 mmHg
- Average Systolic pressure (blood pressure of cats; [11]): 151.5 mmHg
- Diastolic pressure, Animal 1-4 individually (blood pressure of cats; [11]): 131 mmHg and 94 mmHg and 115 mmHg and 127 mmHg
- Systolic pressure, Animal 1-4 individually (blood pressure of cats; [11]): 146 mmHg and 131 mmHg and 165 mmHg and 164 mmHg
- Average Diastolic pressure (blood pressure of cats; [12]): 116.75 mmHg
- Average Systolic pressure (blood pressure of cats; [12]): 155.25 mmHg
- Diastolic pressure, Animal 1-4 individually (blood pressure of cats; [12]): 132 mmHg and 98 mmHg and 117 mmHg and 120 mmHg
- Systolic pressure, Animal 1-4 individually (blood pressure of cats; [12]): 145 mmHg and 139 mmHg and 166 mmHg and 171 mmHg
- Average Diastolic pressure (blood pressure of cats; [13]): 118.5 mmHg
- Average Systolic pressure (blood pressure of cats; [13]): 158.5 mmHg
- Diastolic pressure, Animal 1-4 individually (blood pressure of cats; [13]): 133 mmHg and 97 mmHg and 113 mmHg and 131 mmHg
- Systolic pressure, Animal 1-4 individually (blood pressure of cats; [13]): 152 mmHg and 142 mmHg and 160 mmHg and 180 mmHg
- Systolic pressure, Animal 3-4 individually (blood pressure of cats; 210 min after administration (Table 9)): 156 mmHg and 186 mmHg
- Average Systolic pressure (blood pressure of cats; 210 min after administration (Table 9; two animals)): 171 mmHg
- Systolic pressure, Animal 3-4 individually (blood pressure of cats; 240 min after administration (Table 9)): 155 mmHg and 202 mmHg
- Average Systolic pressure (blood pressure of cats; 240 min after administration (Table 9; two animals)): 178.5 mmHg
- Average Diastolic pressure (blood pressure of cats; [14]): 140 mmHg
- Average Systolic pressure (blood pressure of cats; [14]): 195.25 mmHg
- Diastolic pressure, Animal 1-4 individually (blood pressure of cats; [14]): 134 mmHg and 156 mmHg and 116 mmHg and 154 mmHg
- Systolic pressure, Animal 1-4 individually (blood pressure of cats; [14]): 150 mmHg and 209 mmHg and 185 mmHg and 237 mmHg
- Relaxation Time ([3]; concentration 1 × 10^−4 mg/ml): 5 h
- Time of taking effect ([3]; concentration 1 × 10^−4 mg/ml): 3 min
- inhibition of the automatic rhythmic contraction of the ileum section ([3]; different concentrations): could inhibit the automatic rhythmic contraction of the ileum section

Compound: CC(C)NCC(O)c1ccc(O)c(O)c1 (stereo not drawn) [Isoprenaline, reference compound]
- Time of taking effect ([2]; concentration 1.2 × 10^−6 mg/ml): 16 min
- Contraction force ([2]; concentration 1.2 × 10^−6 mg/ml, relative to original adrenalin contraction): 1
- Relaxation Time ([3]; concentration 5 × 10^−5 mg/ml): 0.3 h
- Time of taking effect ([3]; concentration 5 × 10^−5 mg/ml): 16 min
- time after flushing at which the inhibited contraction is resumed ([3]; concentration 5×10^−5 mg/ml, control): 20 min
